Data published in ChEMBL document CHEMBL5360529, “Pyrimidine derivatives with antitubercular activity” (Eur J Med Chem, 2023).
≈ marks a conversion by molar mass, not a printed value.

What was measured:
[1] = test system: Mycobacterium tuberculosis; assay: Antimycobacterial activity against Mycobacterium tuberculosis H37RV assessed as bacterial growth inhibition; type: functional
[2] = Selectivity index, ratio of Ki for human TMPK to Ki for Mycobacterium tuberculosis TMPK
[3] = target: T1, Thymidylate kinase (Mycobacterium tuberculosis, UniProt P9WKE1); assay: Inhibition of Mycobacterium tuberculosis TMPK assessed as inhibition constant
T1 sequence (P9WKE1 whole entry): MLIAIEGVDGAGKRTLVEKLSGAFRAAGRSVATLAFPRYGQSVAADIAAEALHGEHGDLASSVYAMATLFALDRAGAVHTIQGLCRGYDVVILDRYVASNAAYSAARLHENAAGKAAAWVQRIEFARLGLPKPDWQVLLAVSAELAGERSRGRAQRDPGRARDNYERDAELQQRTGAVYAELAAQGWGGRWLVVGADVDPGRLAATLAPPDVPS

[4] = target: T2, Thymidylate kinase (Homo sapiens, UniProt P23919); assay: Inhibition of human TMPK assessed as inhibition constant
T2 sequence (P23919 whole entry): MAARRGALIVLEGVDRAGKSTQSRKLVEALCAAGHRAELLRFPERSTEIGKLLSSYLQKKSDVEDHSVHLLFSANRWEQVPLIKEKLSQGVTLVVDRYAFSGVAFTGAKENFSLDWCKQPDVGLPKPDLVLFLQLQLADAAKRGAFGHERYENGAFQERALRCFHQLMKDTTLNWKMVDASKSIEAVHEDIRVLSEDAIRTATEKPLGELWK

[5] = Selectivity index, ratio of IC50 for anticancer activity against human HepG2 cells to MIC for antimycobacterial activity against Mycobacterium tuberculosis; type: toxicity, cell-based; conditions: read-out: Selectivity Index
[6] = test system: Mycobacterium tuberculosis; assay: Antimycobacterial activity against Mycobacterium tuberculosis infected in Macrophage cell (unknown origin) assessed as bacterial growth inhibition; type: functional
[7] = test system: HepG2; assay: Anticancer activity against human HepG2 cells assessed as cell growth inhibition; type: functional, cell-based
[8] = test system: Mycobacterium tuberculosis; assay: Antimycobacterial activity against Mycobacterium tuberculosis H37Rv assessed as bacterial growth inhibition by microplate Alamar blue assay; type: functional
[9] = target: Adenosine kinase (Mycobacterium tuberculosis (strain CDC 1551 / Oshkosh), UniProt P9WID4); assay: Inhibition of Mycobacterium tuberculosis ADK
[10] = test system: Mycobacterium tuberculosis; assay: Antimycobacterial activity against Mycobacterium tuberculosis My331/88 assessed as bacterial growth inhibition measured after 14 to 21 day; type: functional; conditions: time 14-21 day
[11] = target: Adenosine kinase (Homo sapiens, UniProt P55263); assay: Inhibition of human ADK
[12] = test system: Mycobacterium tuberculosis; assay: Antimycobacterial activity against Mycobacterium tuberculosis H37Rv infected in po dosed C57BL/6 mouse assessed as bacterial growth inhibition measured after 8 days; type: functional; conditions: 192 h, time 8 day
[13] = test system: Mycobacterium tuberculosis; assay: Antimycobacterial activity against Mycobacterium tuberculosis assessed as bacterial growth inhibition measured after 14 to 21 day; type: functional; conditions: time 14-21 day

Adenosine kinase (Mycobacterium tuberculosis (strain CDC 1551 / Oshkosh), UniProt P9WID4), sequence (P9WID4 whole entry): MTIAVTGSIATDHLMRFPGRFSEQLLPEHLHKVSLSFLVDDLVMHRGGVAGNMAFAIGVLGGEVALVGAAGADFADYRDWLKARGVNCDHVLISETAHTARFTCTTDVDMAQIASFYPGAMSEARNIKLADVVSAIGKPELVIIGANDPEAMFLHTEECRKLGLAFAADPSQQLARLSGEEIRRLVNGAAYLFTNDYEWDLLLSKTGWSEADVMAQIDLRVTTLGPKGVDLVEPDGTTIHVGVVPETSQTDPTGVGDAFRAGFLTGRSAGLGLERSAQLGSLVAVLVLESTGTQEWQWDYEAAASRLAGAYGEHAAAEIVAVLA
Adenosine kinase (Homo sapiens, UniProt P55263), sequence (P55263 whole entry): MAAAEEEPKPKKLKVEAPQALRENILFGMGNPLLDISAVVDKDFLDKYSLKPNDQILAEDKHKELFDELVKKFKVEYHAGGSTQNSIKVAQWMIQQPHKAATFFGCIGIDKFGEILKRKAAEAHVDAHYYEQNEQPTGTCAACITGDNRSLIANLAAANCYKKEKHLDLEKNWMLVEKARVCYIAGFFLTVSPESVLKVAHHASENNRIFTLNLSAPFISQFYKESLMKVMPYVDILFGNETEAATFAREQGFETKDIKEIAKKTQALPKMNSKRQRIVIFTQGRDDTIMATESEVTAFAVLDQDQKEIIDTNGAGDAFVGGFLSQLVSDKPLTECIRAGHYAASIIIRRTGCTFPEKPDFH

## NCC[C@H](O)C(=O)N[C@@H]1C[C@H](N)[C@@H](O[C@H]2O[C@H](CN)[C@@H](O)[C@H](O)[C@H]2O)[C@H](O)[C@H]1O[C@H]1O[C@H](CO)[C@@H](O)[C@H](N)[C@H]1O [AMIKACIN]
[1]
  MIC: 2 µg/mL

## Cc1cn([C@H]2C[C@H](O)[C@@H](CNC(=S)Nc3ccc(Cl)c(C(F)(F)F)c3)O2)c(=O)[nH]c1=O
[2]
  Ratio Ki: 600
[3]
  Ki: 0.6 µM
[4]
  Ki: 362 µM

## Cc1cn([C@@H]2O[C@H](CO)[C@H]3CNC(=S)O[C@H]32)c(=O)[nH]c1=O
[2]
  Ratio Ki: 200

## Cc1cn([C@H]2C[C@H](NC(=O)N[C@H]3C[C@H](c4[nH]c(=O)[nH]c(=O)c4C)O[C@@H]3O)[C@@H](CO)O2)c(=O)[nH]c1=O
[3]
  Ki: 37 µM

## Cc1nn2c(=O)cc(-c3ccc(F)c(F)c3)[nH]c2c1-c1ccccc1
[5]
  selectivity ratio: > 36
[6]
  MIC: 2.73 µM (≈ 0.921 µg/mL)
[1]
  MIC: 1.56 µM
[7]
  IC50: > 100 µM

## Cc1nn2c(=O)cc(-c3ccccc3)[nH]c2c1-c1ccccc1
[1]
  MIC: 3.12 µM

## CCCSc1nc(Cl)c(C#N)c(-c2cccc(F)c2)n1
[8]
  MIC: 0.78 µg/mL

## OC[C@H]1O[C@@H](n2ccc3c(-c4cc5ccccc5o4)nc(F)nc32)[C@H](O)[C@@H]1O
[9]
  IC50: 1.2 µM
[10]
  MIC: 62.5 µM (≈ 24.1 µg/mL)
[11]
  IC50: > 10 µM

## COc1ccc(-c2cc(=O)n3nc(C)c(-c4ccc(Cl)cc4)c3[nH]2)cc1
[1]
  MIC: 3.12 µM

## O=c1cc(CC2CCCCC2)[nH]c2c(-c3ccc(Cl)cc3)cnn12
[1]
  MIC: 0.78 µM

## N#Cc1c(Cl)nc(SCc2ccc(Cl)cc2)nc1-c1cccs1
[8]
  MIC: 0.78 µg/mL

## O=C(C1CCN(c2cc(N3CCOCC3)ncn2)CC1)N1CCC(Cc2ccc(F)cc2)CC1
[12]
  ED99: 29 mg/kg

## COc1c(N2C[C@@H]3CCCN[C@@H]3C2)c(F)cc2c(=O)c(C(=O)O)cn(C3CC3)c12 [MOXIFLOXACIN]
[12]
  ED99: 27.7 mg/kg

## O=c1nc(N2CCN(CC3CCCCC3)CC2)sc2c([N+](=O)[O-])cc(C(F)(F)F)cc12 [MACOZINONE]
[1]
  MIC: ≤ 0.00019 µg/mL

## COc1ccc(CNc2nc(F)nc(-c3ccco3)c2NC=O)cc1
[1]
  IC90: < 0.2 µg/mL

## O=C(C1CCN(c2cc(N3CCOCC3)ncn2)CC1)N1CCC(Oc2ccc(F)cc2)CC1
[12]
  ED99: 30 mg/kg

## OC[C@H]1O[C@@H](n2ccc3c(-c4cccc5c4oc4ccccc45)nc(F)nc32)[C@H](O)[C@@H]1O
[9]
  IC50: 0.18 µM
[10]
  MIC: 32 µM (≈ 13.9 µg/mL)
[11]
  IC50: > 20 µM
[13]
  MIC: 32 µM (≈ 13.9 µg/mL)

## CCCSc1nc(Cl)c(C#N)c(-c2ccco2)n1
[8]
  MIC: 0.78 µg/mL

## COc1ccc(Cn2cnc3c(-c4ccco4)nc(Cl)nc32)cc1
[1]
  MIC: 0.78 µg/mL

## CC(=O)NC[C@H]1CN(c2ccc(N3CCOCC3)c(F)c2)C(=O)O1 [LINEZOLID]
[12]
  ED99: 28 mg/kg

## COc1ccc(CNc2nc(C)nc(-c3ccco3)c2NC=O)cc1
[1]
  IC90: 0.33 µg/mL (≈ 0.975 µM)

## O=c1cc(-c2ccc(Cl)cc2)[nH]c2c(-c3ccc(Cl)cc3)cnn12
[1]
  MIC: 12.5 µM

## CCCSc1nc(Cl)c(C#N)c(-c2cccs2)n1
[8]
  MIC: 0.78 µg/mL

## COc1ccc(CNc2nc(Cl)nc(-c3ccco3)c2NC=O)cc1
[1]
  IC90: 0.29 µg/mL (≈ 0.808 µM)
